Data taken from patent US6603046B1, “Bis-aromatic a,β-unsaturated ketones” (Lica Pharmaceuticals A/S, priority 1992, dated 2003).

Columns and labels:
L. major promastigotes = L. major promastigotes from 4-days cultures, 3H-thymidine uptake (Examples 5, 14); format: cell-based, Leishmania major; conditions: Leishmania major, Table 14.1, read-out: percentage inhibition of promastigotes (upper figure); for inhibition at 0.5 µg/mL: 0.5 μg/ml; for inhibition at 1 µg/mL: 1 μg/ml; for inhibition at 5 µg/mL: 5 μg/ml; for inhibition at 10 µg/mL: 10 μg/ml
Method: Parasite cultures. The same parasite culture as described in Example 4. Promastigotes were harvested on day 4 of the culture and used for the parasiticidal assay.
Effect on promastigotes. […] Following incubation, […] of ^3H-thymidine was added to each well and further incubated for 18 hrs. Promastigotes were then harvested on filter paper by means of a cell harvester (Skatron, Lierbyen, Norway), extensively washed with distilled water and counted in a scintillation counter (Minaxi Ti-Carb 4000, United Technologies, Packard, USA).
L. major promastigotes. The L. major promastigotes were prepared as described in Example 4 and harvested after 4 days.

P. falciparum = P. falciparum growth in vitro (Table 14.1, strain not stated); format: cell-based; conditions: Plasmodium falciparum, read-out: inhibition of malaria parasites (middle figure) (converted); for inhibition at 0.5 µg/mL: 0.5 μg/ml; for inhibition at 1 µg/mL: 1 μg/ml; for inhibition at 5 µg/mL: 5 μg/ml; for inhibition at 10 µg/mL: 10 μg/ml
Method: The P. falciparum experimental setup was as described in Example 15.
Testing of the effect of drugs and serum on the in vitro growth of the parasites. The experiments in which compounds were tested for their ability to inhibit parasite growth were performed by a modification of the method originally described by Jensen et al. (1982). Fifty μl of parasitized erythrocytes (parasitemia approximately 1%) in a concentration of 5×10^8/ml and 50 μl of RPMI medium containing different concentrations of the test compound was added to each well of a 96 well flat-bottomed microtiter plate (Nunc). The cultures were then incubated for 48 hours, 24 hours before termination of the culture adding 20 μl of 3-H-hypoxanthine (40 uCi/ml) (New England Nuclear, Boston, Mass., USA) was added to each well. The cultures were then harvested onto glass fiber filters using a Skatron cell harvester (Skatron, Lierbyen, Norway), and the incorporation of 3-H-hypoxanthine into the DNA of dividing parasites was determined by liquid scintillation spectrometry.

human lymphocytes = assay: Lymphocyte Proliferation Assay, 3H-thymidine incorporation (Example 13); conditions: Homo sapiens, Lymphocyte, read-out: inhibition of lymphocytes (lower figure)
[1] = system: chloroquine resistant P. falciparum DD2 strain; assay: In vitro growth of P. falciparum DD2, 3H-hypoxanthine uptake (Example 15); format: cell-based, Plasmodium falciparum; conditions: title: percentage inhibition of 3H-hypoxanthine uptake
P. yoelii strain YM = P. yoelii strain YM infection in mice, parasitemia and mortality (Example 16); format: in vivo, BALB/c mice; conditions: Table 16.11; for % parasitemia (mean ± SEM): 3 h after infection, D + 1 to D + 5
[2] = D + 6, i.p. 20 mg/kg twice daily
[3] = D + 6, i.p. 30 mg/kg twice daily
[4] = D + 8, i.p. 20 mg/kg twice daily
[5] = D + 8, i.p. 30 mg/kg twice daily
[6] = D + 10, i.p. 20 mg/kg twice daily
[7] = D + 10, i.p. 30 mg/kg twice daily to D + 5
[8] = D + 12, i.p. 20 mg/kg twice daily
[9] = D + 14, i.p. 20 mg/kg twice daily to D + 5
[10] = D + 14, i.p. 20 mg/kg twice daily
[11] = D + 16, i.p. 20 mg/kg twice daily to D + 5
[12] = D + 16, i.p. 20 mg/kg twice daily

COc1ccc(/C=C/C(=O)c2ccccc2O)c(OC)c1
inhibition at 0.5 µg/mL (L. major promastigotes): 19.2 ± 18.1%
inhibition at 1 µg/mL (L. major promastigotes): 37.6 ± 18.3%
inhibition at 5 µg/mL (L. major promastigotes): 89.4 ± 13.8%
inhibition at 10 µg/mL (L. major promastigotes): 98.3 ± 1%
inhibition at 0.5 µg/mL (P. falciparum): 0%
inhibition at 1 µg/mL (P. falciparum): 0.8%
inhibition at 5 µg/mL (P. falciparum): 23.4%
inhibition at 10 µg/mL (P. falciparum): 67.9%
inhibition at 0.5 µg/mL (human lymphocytes): 3%
inhibition at 1 µg/mL (human lymphocytes): 5.5%
inhibition at 5 µg/mL (human lymphocytes): 2.6%
inhibition at 10 µg/mL (human lymphocytes): 0%

COc1cccc(OC)c1/C=C/C(=O)c1ccc(O)cc1
inhibition at 0.5 µg/mL (L. major promastigotes): 11.4 ± 9.2%
inhibition at 1 µg/mL (L. major promastigotes): 21.5 ± 10.6%
inhibition at 5 µg/mL (L. major promastigotes): 77.5 ± 4.3%
inhibition at 10 µg/mL (L. major promastigotes): 93.1 ± 4.6%
inhibition at 0.5 µg/mL (P. falciparum): 0%
inhibition at 1 µg/mL (P. falciparum): 16.6%
inhibition at 5 µg/mL (P. falciparum): 71%
inhibition at 10 µg/mL (P. falciparum): 90.6%
inhibition at 0.5 µg/mL (human lymphocytes): 0%
inhibition at 1 µg/mL (human lymphocytes): 3.3%
inhibition at 5 µg/mL (human lymphocytes): 2.3%
inhibition at 10 µg/mL (human lymphocytes): 4.4%

COc1cccc(/C=C/C(=O)c2ccc(O)cc2)c1OC [2,3-Dimethoxy-4′-hydroxychalcone]
Growth in % of control (mean ± SEM) ([1]; 0.5 μg/ml): 46 ± 22%
Growth in % of control (mean ± SEM) ([1]; 1 μg/ml): 54.4 ± 22.2%
Growth in % of control (mean ± SEM) ([1]; 5 μg/ml): 53.5 ± 20.1%
Growth in % of control (mean ± SEM) ([1]; 10 μg/ml): 67.6 ± 12.4%

CCOc1ccc(/C=C/C(=O)c2ccccc2O)c(OCC)c1 [2,4-Diethoxy-2′-hydroxychalcone]
Growth in % of control (mean ± SEM) ([1]; 0.5 μg/ml): 23.1 ± 8.3%
Growth in % of control (mean ± SEM) ([1]; 1 μg/ml): 20.8 ± 8.8%
Growth in % of control (mean ± SEM) ([1]; 5 μg/ml): 33.7 ± 8.2%
Growth in % of control (mean ± SEM) ([1]; 10 μg/ml): 55.3 ± 7.4%

CCOc1ccc(/C=C/C(=O)c2ccc(O)cc2)c(OCC)c1 [2,4-Diethoxy-4′-hydroxychalcone]
Growth in % of control (mean ± SEM) ([1]; 0.5 μg/ml): 14.5 ± 7.2%
Growth in % of control (mean ± SEM) ([1]; 1 μg/ml): 9 ± 7%
Growth in % of control (mean ± SEM) ([1]; 5 μg/ml): 54.2 ± 10.2%
Growth in % of control (mean ± SEM) ([1]; 10 μg/ml): 86.8 ± 7.3%

C=CCOc1ccc(C(=O)/C=C/c2ccc(OC)cc2OC)cc1 [2,4-Dimethoxy-4′-allyloxychalcone, 2,4-dimethoxy-4′-prop-2-enyloxychalcone]
Growth in % of control (mean ± SEM) ([1]; 0.5 μg/ml): 29.1 ± 10.8%
Growth in % of control (mean ± SEM) ([1]; 1 μg/ml): 23.6 ± 11.2%
Growth in % of control (mean ± SEM) ([1]; 5 μg/ml): 44.3 ± 10.5%
Growth in % of control (mean ± SEM) ([1]; 10 μg/ml): 75.2 ± 7.8%
% parasitemia (mean ± SEM) (P. yoelii strain YM; [2]): 0.4 ± 0.2%
% parasitemia (mean ± SEM) (P. yoelii strain YM; [3]): 37.4 ± 0.9%
% parasitemia (mean ± SEM) (P. yoelii strain YM; D + 6, i.p. 40 mg/kg twice daily): 55.8 ± 1.5%
% parasitemia (mean ± SEM) (P. yoelii strain YM; [4]): 0.8 ± 0.2%
% parasitemia (mean ± SEM) (P. yoelii strain YM; [5]): 67.2 ± 0.9%
mortality (no. of dead mice/total no. of tested mice) (P. yoelii strain YM; D + 8, i.p. 40 mg/kg twice daily to D + 5): (2/5)
% parasitemia (mean ± SEM) (P. yoelii strain YM; D + 8, i.p. 40 mg/kg twice daily): 83 ± 2.1%
% parasitemia (mean ± SEM) (P. yoelii strain YM; [6]): 14.3 ± 4.0%
mortality (no. of dead mice/total no. of tested mice) (P. yoelii strain YM; [7]): (5/5)
mortality (no. of dead mice/total no. of tested mice) (P. yoelii strain YM; D + 10, i.p. 40 mg/kg twice daily to D + 5): (5/5)
% parasitemia (mean ± SEM) (P. yoelii strain YM; [8]): 32.4 ± 4.0%
mortality (no. of dead mice/total no. of tested mice) (P. yoelii strain YM; [9]): 3/5
% parasitemia (mean ± SEM) (P. yoelii strain YM; [10]): 7%
mortality (no. of dead mice/total no. of tested mice) (P. yoelii strain YM; [11]): 3/5
% parasitemia (mean ± SEM) (P. yoelii strain YM; [12]): 0%

COc1ccc(/C=C/C(=O)c2ccc(O)cc2)c(OC)c1 [2,4-Dimethoxy-4′-hydroxychalcone, 2,4-dimethoxy-4′-hydroxychalcone]
Growth in % of control (mean ± SEM) ([1]; 0.5 μg/ml): 18.6 ± 7.2%
Growth in % of control (mean ± SEM) ([1]; 1 μg/ml): 21.8 ± 7.3%
Growth in % of control (mean ± SEM) ([1]; 5 μg/ml): 46.8 ± 6.6%
Growth in % of control (mean ± SEM) ([1]; 10 μg/ml): 68.0 ± 4.7%
% parasitemia (mean ± SEM) (P. yoelii strain YM; [2]): 4.8 ± 1.5%
% parasitemia (mean ± SEM) (P. yoelii strain YM; [3]): 46.4 ± 2.1%
mortality (no. of dead mice/total no. of tested mice) (P. yoelii strain YM; D + 6, i.p. 40 mg/kg twice daily to D + 5): (5/5)
% parasitemia (mean ± SEM) (P. yoelii strain YM; [4]): 12.4 ± 2.4%
mortality (no. of dead mice/total no. of tested mice) (P. yoelii strain YM; D + 8, i.p. 30 mg/kg twice daily to D + 5): (1/5)
% parasitemia (mean ± SEM) (P. yoelii strain YM; [5]): 70.8 ± 3.5%
% parasitemia (mean ± SEM) (P. yoelii strain YM; [6]): 58.6 ± 14%
mortality (no. of dead mice/total no. of tested mice) (P. yoelii strain YM; [7]): (5/5)
mortality (no. of dead mice/total no. of tested mice) (P. yoelii strain YM; D + 12, i.p. 20 mg/kg twice daily to D + 5): 3/5
% parasitemia (mean ± SEM) (P. yoelii strain YM; [8]): 25%
mortality (no. of dead mice/total no. of tested mice) (P. yoelii strain YM; [9]): 3/5
% parasitemia (mean ± SEM) (P. yoelii strain YM; [10]): 6%
mortality (no. of dead mice/total no. of tested mice) (P. yoelii strain YM; [11]): 3/5
% parasitemia (mean ± SEM) (P. yoelii strain YM; [12]): 0%
